Each structure is given as a SMILES string.

For assay [1], the system named is larvae of brown planthopper (Nilaparvata lugens Stahl). The assay is described as follows: Test Example 1: insecticidal activity against larvae of brown planthopper. It is filed as in vivo. To be noted: 120 h, third-instar larvae, 25° C., 5 days after treatment. On the procedure: Insecticidal activity against larvae of brown planthopper (Nilaparvata lugens Stahl).
Testing method: Five rice seedlings of the 1.5 leaf age were dipped in a test composition of 400 ppm concentration for 30 seconds. After air-drying, the seedlings were placed in a glass tube containing 1 ml of water and infested with five third-instar larvae of brown planthopper. The glass tube was left standing in a constant temperature cabinet at 25° C. and 5 or 7 days after the treatment, dead-and-survival was observed. Mortality was calculated from the results of 3-replication test.

The subject of assay [2] is two-spotted spider mite (Tetranychus urticae Koch). Kind of assay: Test Example 3: activity to two-spotted spider mite. In kind it is in vivo. As to conditions: 120 h, 1,000 ppm, 5 days after treatment. The source says: Activity to two-spotted spider mite (Tetranychus urticae Koch).
Testing method: Two-spotted spider mites were set free on the pot-planted soybean in a greenhouse. On the next day, a test composition of 1,000 ppm concentration was sprayed over the soybean by means of a spray gun. Two days or five days after the treatment, dead-and-survival was inspected to calculate the mortality.

The term mortality denotes the share of the test organisms that died. Read a low mortality as more survivors. `CC(C)(C)N=C1SCN(c2ccccc2)C(=O)N1Cc1ccccc1` [Compound 159] registered a mortality at 400 ppm in assay [1] of 80%.

Compound `CC(C)N=C1SCN(c2ccccc2)C(=O)N1c1ccc(F)cc1` [Compound 167] returned a mortality at 400 ppm in assay [1] of 70%.

In turn, `COCCN1C(=O)N(c2ccccc2)CSC1=NC(C)C` [Compound 179] yielded a mortality at 400 ppm in assay [1] of 90%.

For the compound `CCOCCN1C(=O)N(c2ccccc2)CSC1=NC(C)(C)C` [Compound 182], the mortality at 400 ppm in assay [1] amounted to 70%.

In the case of `COCCN1C(=O)N(c2cccc(Cl)c2)CSC1=NC(C)(C)C` [Compound 229], in assay [1], the mortality at 400 ppm was 100%.

With `CC(C)N=C1SCN(c2cccc(Cl)c2)C(=O)N1C1CCCC1` [Compound 233], the mortality at 1000 ppm in assay [2] was 100%. Besides, the mortality at 400 ppm in assay [1] was determined as 100%.

As for `CCCCCCN1C(=O)N(c2cccc(Cl)c2)CSC1=NC(C)C` [Compound 234], the mortality at 400 ppm in assay [1] is 100%.

For the compound `CC(C)N=C1SCN(c2cccc(Cl)c2)C(=O)N1C(C)c1ccccc1` (stereo not shown) [Compound 237], the mortality at 1000 ppm in assay [2] is 100%. In assay [1], this compound came in with a mortality at 400 ppm of 100%.

In assay [2], `CCN1C(=O)N(c2ccccc2Cl)CSC1=NC(C)(C)C` [Compound 241] showed a mortality at 1000 ppm of 70%. The mortality at 400 ppm in assay [1] is 100%.

Compound `C=CCN1C(=O)N(c2ccccc2Cl)CSC1=NC(C)C` [Compound 242] showed a mortality at 1000 ppm in assay [2] of 70%. The mortality at 400 ppm in assay [1] is 100%.

The compound `C=CCN1C(=O)N(c2ccccc2Cl)CSC1=NC(C)(C)C` [Compound 243] returned a mortality at 400 ppm in assay [1] of 100%.

`CC(C)N1C(=O)N(c2ccccc2Cl)CSC1=NC1CCCCC1` [Compound 252, 2-Cyclohexylimino-3-isopropyl-5-(o-chlorophenyl)-tetrahydro-1,3,5-thiadiazin-4-one] showed a mortality at 400 ppm in assay [1] of 100%.

`CCC(C)N=C1SCN(c2ccccc2Cl)C(=O)N1CC(C)C` (stereo not shown) [Compound 253] had a mortality at 400 ppm in assay [1] of 80%.

Compound `CC(C)N=C1SCN(c2ccccc2Cl)C(=O)N1Cc1ccco1` [Compound 255] registered a mortality at 1000 ppm in assay [2] of 100%. Further, the mortality at 400 ppm in assay [1] worked out at 100%.

For `COCCCN1C(=O)N(c2ccccc2Cl)CSC1=NC(C)(C)C` [Compound 258], the mortality at 1000 ppm in assay [2] worked out at 100%. In assay [1], this compound displayed a mortality at 400 ppm of 100%.

In the case of `CCN=C1SCN(c2cccc(C(F)(F)F)c2)C(=O)N1CC` [Compound 260], the mortality at 1000 ppm in assay [2] is 100%. Moreover, in assay [1], the mortality at 400 ppm stood at 60%.

`CC(C)N=C1NC(=O)N(c2ccc(F)cc2)CS1` [Compound 275] showed a mortality at 400 ppm in assay [1] of 100%.

In assay [1], `CC(C)(C)N=C1NC(=O)N(c2ccc(F)cc2)CS1` [Compound 276] yielded a mortality at 400 ppm of 100%.

In turn, `C=CCN=C1SCN(c2ccc(F)cc2)C(=O)N1C` [Compound 289] showed a mortality at 1000 ppm in assay [2] of 100%. In assay [1], this compound came in with a mortality at 400 ppm of 100%.

In turn, `CC(C)N=C1SCN(c2ccc(Br)cc2)C(=O)N1C(C)C` [Compound 293, 2-Isopropylimino-3-isopropyl-5-(p-bromophenyl)-tetrahydro-1,3,5-thiadiazin-4-one] returned a mortality at 1000 ppm in assay [2] of 100%. Further, in assay [1], the mortality at 400 ppm is 100%.

In turn, `CC(C)N1C(=O)N(c2ccc(Br)cc2)CSC1=NC(C)(C)C` [Compound 294] showed a mortality at 1000 ppm in assay [2] of 100%. In addition, in assay [1], the mortality at 400 ppm was 100%.

In assay [2], `CCC(C)N1C(=O)N(c2ccc(Br)cc2)CSC1=NC(C)(C)C` (stereo not shown) [Compound 295] had a mortality at 1000 ppm of 100%. Moreover, the mortality at 400 ppm in assay [1] was 100%.

Turning to `Cc1ccccc1N1CSC(=NC(C)C)N(C)C1=O` [Compound 297], the mortality at 1000 ppm in assay [2] was 100%. For the same compound, in assay [1], the mortality at 400 ppm was determined as 100%.

Turning to `CCN=C1SCN(c2ccccc2C)C(=O)N1CC` [Compound 298], the mortality at 1000 ppm in assay [2] amounted to 100%.

The compound `CCN1C(=O)N(c2ccccc2C)CSC1=NC(C)(C)C` [Compound 299] showed a mortality at 1000 ppm in assay [2] of 100%. For the same compound, the mortality at 400 ppm in assay [1] came to 100%.

Regarding `C=CCN1C(=O)N(c2ccccc2C)CSC1=NC(C)(C)C` [Compound 300], in assay [2], the mortality at 1000 ppm is 90%. Moreover, the mortality at 400 ppm in assay [1] came out at 100%.

`CCCCCCN1C(=O)N(c2ccccc2C)CSC1=NC(C)C` [Compound 304]: the mortality at 1000 ppm in assay [2] is 100%. Moreover, in assay [1], the mortality at 400 ppm was 100%.

Take `Cc1ccccc1N1CSC(=NC2CCCCC2)N(C(C)C)C1=O` [Compound 305]: the mortality at 1000 ppm in assay [2] turned out to be 70%. In addition, the mortality at 400 ppm in assay [1] is 95%.

As to `CCc1ccc(N2CSC(=NC(C)C)N(C(C)C)C2=O)cc1` [Compound 332], the mortality at 400 ppm in assay [1] worked out at 100%.

In assay [1], `CCc1ccc(N2CSC(=NC(C)(C)C)N(C(C)CC)C2=O)cc1` (stereo not shown) [Compound 334] returned a mortality at 400 ppm of 100%.

In assay [1], `CCc1ccccc1N1CSC(=NC)N(C)C1=O` [Compound 335] came in with a mortality at 400 ppm of 80%.

In assay [2], `C=CCN1C(=O)N(c2ccccc2CC)CSC1=NC(C)C` [Compound 336] came in with a mortality at 1000 ppm of 100%. Moreover, the mortality at 400 ppm in assay [1] was 100%.

With `CCc1ccccc1N1CSC(=NC(C)C)N(C(C)C)C1=O` [Compound 337], the mortality at 1000 ppm in assay [2] was 100%. In addition, the mortality at 400 ppm in assay [1] was 100%.

In the case of `CCc1ccccc1N1CSC(=NC(C)(C)C)N(C(C)C)C1=O` [Compound 338], in assay [1], the mortality at 400 ppm is 100%.

As to `CCc1ccccc1N1CSC(=NC(C)(C)C)N(C(C)CC)C1=O` (stereo not shown) [Compound 339, 2-t-butylimino-3-s-butyl-5-(o-ethylphenyl)-tetrahydro-1,3,5-thiadiazin-4-one], the mortality at 400 ppm in assay [1] worked out at 100%.

In assay [1], `CC(C)N=C1SCN(c2ccccc2C(C)C)C(=O)N1C(C)C` [Compound 342] displayed a mortality at 400 ppm of 100%.

Regarding `CC(C)c1ccccc1N1CSC(=NC(C)(C)C)N(C(C)C)C1=O` [Compound 343, 2-t-Butylimino-3-isopropyl-5-(o-isopropyl)-phenyl-tetrahydro-1,3,5-thiadiazin-4-one], the mortality at 400 ppm in assay [1] is 100%.

`CCC(C)N1C(=O)N(c2ccccc2C(C)C)CSC1=NC(C)(C)C` (stereo not shown) [Compound 344] gave a mortality at 400 ppm in assay [1] of 100%.

Consider `C=CCN1C(=O)N(c2ccc(OC)cc2)CSC1=NC(C)C` [Compound 350], for which the mortality at 1000 ppm in assay [2] is 100%. Also, in assay [1], the mortality at 400 ppm came out at 100%.

For `CCCN1C(=O)N(c2ccc(OC)cc2)CSC1=NC1CCCCC1` [Compound 354], the mortality at 1000 ppm in assay [2] was determined as 100%. The compound also had a mortality at 400 ppm in assay [1] of 100%.

In turn, `COc1ccc(N2CSC(=NC(C)C)N(c3ccc(Cl)c(Cl)c3)C2=O)cc1` [Compound 359] displayed a mortality at 1000 ppm in assay [2] of 100%.

`COc1ccccc1N1CSC(=NC(C)(C)C)N(C(C)C)C1=O` [Compound 360] showed a mortality at 400 ppm in assay [1] of 100%.

Regarding `CCOc1ccc(N2CSC(=NC(C)(C)C)N(C(C)C)C2=O)cc1` [Compound 367], the mortality at 1000 ppm in assay [2] stood at 100%. Also, the mortality at 400 ppm in assay [1] came out at 80%.

Regarding `CC(C)N=C1SCN(c2ccc(OC(C)C)cc2)C(=O)N1C` [Compound 370, 2-Isopropylimino-3-methyl-5-(p-isopropoxyphenyl)-tetrahydro-1,3,5-thiadiazin-4-one], the mortality at 1000 ppm in assay [2] was 100%.

Compound `CCN=C1SCN(c2ccc(OC(C)C)cc2)C(=O)N1CC` [Compound 371] displayed a mortality at 1000 ppm in assay [2] of 100%. In assay [1], the mortality at 400 ppm turned out to be 75%.

`CC(C)N=C1SCN(c2ccc(OC(C)C)cc2)C(=O)N1C(C)C` [Compound 372, 2-isopropylimino-3-isopropyl-5-(p-isopropoxyphenyl)-tetrahydro-1,3,5-thiadiazin-4-one] gave a mortality at 1000 ppm in assay [2] of 100%. The compound also had a mortality at 400 ppm in assay [1] of 60%.

In turn, `CC(C)Oc1ccc(N2CSC(=NC(C)(C)C)N(C(C)C)C2=O)cc1` [Compound 373] came in with a mortality at 1000 ppm in assay [2] of 100%. This compound also had a mortality at 400 ppm in assay [1] of 80%.

Turning to `CCC(C)N1C(=O)N(c2ccc(OC(C)C)cc2)CSC1=NC(C)(C)C` (stereo not shown) [Compound 374, 2-t-butylimino-3-s-butyl-5-(p-isopropoxyphenyl)-tetrahydro-1,3,5-thiadiazin-4-one], in assay [2], the mortality at 1000 ppm was 100%. Moreover, the mortality at 400 ppm in assay [1] is 80%.

Take `CN=C1SCN(c2ccc(C)cc2C)C(=O)N1C` [Compound 376]: the mortality at 1000 ppm in assay [2] is 100%. For the same compound, in assay [1], the mortality at 400 ppm was 60%.

In assay [2], `Cc1ccc(N2CSC(=NC(C)C)N(C)C2=O)c(C)c1` [Compound 377, 2-Isopropylimino-3-methyl-5-(2,4-dimethyl-phenyl)-tetrahydro-1,3,5-thiadiazin-4-one] registered a mortality at 1000 ppm of 100%. The mortality at 400 ppm in assay [1] came to 100%.

Turning to `Cc1ccc(N2CSC(=NC(C)C)N(C(C)C)C2=O)c(C)c1` [Compound 378, 2-isopropylimino-3-isopropyl-5-(2,4-dimethylphenyl)-tetrahydro-1,3,5-thiadiazin-4-one], in assay [2], the mortality at 1000 ppm is 100%. This compound gave a mortality at 400 ppm in assay [1] of 100%.

`Cc1ccc(N2CSC(=NC(C)(C)C)N(C(C)C)C2=O)c(C)c1` [Compound 379, 2-t-butylimino-3-isopropyl-5-(2,4-dimethylphenyl)-tetrahydro-1,3,5-thiadiazin-4-one] yielded a mortality at 1000 ppm in assay [2] of 100%. Besides, the mortality at 400 ppm in assay [1] worked out at 100%.

In the case of `CCC(C)N1C(=O)N(c2ccc(C)cc2C)CSC1=NC(C)(C)C` (stereo not shown) [Compound 380], the mortality at 1000 ppm in assay [2] was determined as 100%. Further, the mortality at 400 ppm in assay [1] worked out at 100%.

In the case of `CC(C)N=C1SCN(c2cc(Cl)cc(Cl)c2)C(=O)N1Cc1ccccc1` [Compound 408, 2-Isopropylimino-3-benzyl-5-(3,5-dichloro-phenyl)-tetrahydro-1,3,5-thiadiazin-4-one], the mortality at 1000 ppm in assay [2] was 100%.

`CCN1C(=O)N(c2ccc(Cl)c(Cl)c2)CSC1=NCC(C)C` [Compound 419] gave a mortality at 1000 ppm in assay [2] of 100%.
